Test results taken from ChEMBL document CHEMBL3832060, “DailyMed|setid=39945812-f776-4b13-8199-e846e37aa101 | TRAMADOL HYDROCHLORIDE AND ACETAMINOPHEN - tramadol hydrochloride and acetaminophen tablet, film coated|Cadila Healthcare Limited”.

Assay: clinical
Details: human, in vivo, po
Description: Evalaution of pharmacokinetic parameters of Acetaminophen following single oral co-administration of 325 mg Acetaminophen tablets with 37.5 mg Tramadol.

Work on `CC(=O)Nc1ccc(O)cc1` [ACETAMINOPHEN] yielded a Cmax of 4200 ng/mL, a Tmax of 0.9 h and a half-life of 2.5 h.
